Experimental data from patent US20250361221A1, “SOLID STATE FORMS OF PALTUSOTINE AND PROCESS FOR PREPARATION THEREOF” (ASSIA CHEMICAL INDUSTRIES LTD., priority 2022, published 2025).

Key:
Format in all cases: physicochemical
[1] = Thermal stability: heating up to 100° C. for 30 minutes (XRPD); settings: Heating 100° C.
Experimental: (§1) X-ray diffraction was performed on X-Ray powder diffractometer: Bruker D8 Advance; CuKα radiation (λ=1.5418 Å); Lynx eye detector; laboratory temperature 22-25° C.; PMMA specimen holder ring with silicon low background. Prior to analysis, the samples were gently ground by means of mortar and pestle in order to obtain a fine powder. The ground sample was adjusted into a cavity of the sample holder and the surface of the sample was smoothed by means of a cover glass.
(§2) • Scan range: 2-40 degrees 2-theta; • Scan mode: continuous; • Step size: 0.05 degrees; • Time per step: 0.5 s; • Sample spin: 30 rpm; • Sample holder: PMMA specimen holder ring with silicon low background.
Samples of Paltusotine forms PL1 and PL11 were subjected to heating up to 100° C. for 30 minutes. XRPD analysis of the sample confirmed no change in the starting material (Table 4): […]

[2] = Grinding experiments: strong grinding and solvent drop grinding (XRPD); settings: 2 minutes
Experimental: as §1, §2
Samples of Paltusotine forms PL1 and PL11 were subjected to strong grinding, and to solvent drop grinding in water, ethanol and isopropanol. Grinding was carried out on the samples alone, or in the presence of ethanol or water. In these experiments, about 20 mg of the sample is placed in a mortar and ground with a pestle for 2 minutes. The solvent, when used, as added to the crystalline material before grinding, in a volume of 10 microlitres. XRPD analysis performed on each of the samples after the grinding experiment, confirmed no change in the starting material (Table 3): […]

[3] = Stability to compression: pressure of 2 tons in a hydraulic press (XRPD); settings: 2 tons/1 minute
Experimental: as §1, §2
Samples of Paltusotine forms PL1 and PL11 were subjected to a pressure of 2 tons in a hydraulic press (Atlas® Autopress hydraulic press, set to 2 tons). XRPD analysis was performed on the samples after 1 minute.

[4] = Storage stability at different relative humidities and temperatures, 6 months (XRPD); settings: for XRPD analysis results: 6 months
Experimental: as §1, §2
Samples of Paltusotine form PL1 was subjected to conditions of different relative humidities at different temperatures. XRPD analysis was performed on the samples after 6 months.

Result (XRPD analysis) [1]: Stable | XRPD analysis results ([2]; Solvent-drop grinding (ethanol), 10 microlitres): No change | XRPD analysis results ([2]; Solvent-drop grinding (isopropanol), 10 microlitres): No change | XRPD analysis results ([2]; Solvent-drop grinding (water), 10 microlitres): No change | XRPD analysis results ([2]; Strong grinding, mortar and pestle): No change | Result (XRPD analysis) [3]: Stable | XRPD analysis results ([4]; 25° C., 60% RH): No change | time stable after exposure to high and low relative humidity at different temperatures ([4]; 25° C./60% RH and 40° C./75% RH): at least 6 months | XRPD analysis results ([4]; 40° C., 75% RH): No change
Structure (SMILES): N#Cc1cccc(-c2ccc3ncc(-c4cc(F)cc(F)c4)c(N4CCC(N)CC4)c3c2)c1O [Form PL1, Paltusotine]
